{"source": "patent US20230167437A1", "about": "“COMPOSITIONS FOR TREATING CANCER WITH KRAS MUTATIONS AND USES THEREOF” (Aadigen, LLC, priority 2020, published 2023)", "key": {"[1]": {"system": "pERK", "assay": "Downstream signaling proteins quantified by ELISA on tumors", "assay_type": "in vivo, mice", "conditions": "PANC1 tumors", "description": "The specificity of gRNA35A5 G12D and gRNA35T3 G12V for their targets in PANC-1 and SW403 tumors cells, have been analyzed. Female nude mice 6-weeks of age were injected with either Human pancreatic carcinoma cell (Panc1-Luc) containing the 35G>A mutation or Human colorectal cancer cells (SW403) containing 35G>T KRAS mutation (20×10^6 cells in 200 μl PBS). A period of 2 weeks was allowed for tumor development before the beginning of the experiments.\nAnimal were injected on day 1 and day 7. Mice received IV injection of 100 μl ADGN/mRNA complex in 5% glucose. At Day 50, animals were sacrificed and tissues/tumors were harvested. At Day 50 post treatment, level of expression of housekeeping genes; glyceraldehyde-3-phosphate dehydrogenase (GAPDH), HPRT-1 and mitochondrial ATP synthase 6 (mATPsy6) was evaluated by PCR in the tumor, liver, spleen and lung.\nWe analyzed the level of KRAS G12D or KRAS G12V gene editing by deep sequencing in PANC1 (FIG. 14A) and SW403 (FIG. 14B) tumors, respectively. […] The level of downstream signaling proteins (pAKT and pERK) were quantified by ELISA on PANC1 and SW403 tumors. […] Given that targeting KRAS using Cas9/sgRNA can induce various secondary mutations at or near the target sites, deep sequencing shown similar level of secondary oncogenic mutations (G12D, G12V, G12C, G13D, G12R, G12A, and G12S) in KRAS-mutant cancer cells (SW403/PANC-1) or cells containing wild-type KRAS (HT29) either in vitro or in vivo."}, "[2]": {"system": "wild type KRAS", "assay": "Indel frequencies at the endogenous target sequences (T7E1 / deep sequencing) after ADGN/Cas9 mRNA/gRNA transfection", "assay_type": "cell-based, human", "conditions": "deep sequencing, 72 hours after transfection, Cas9 mRNA 0.1 μg, gRNA 0.2 μg", "in_short": "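Cas9 mRNA and gRNA complexed with ADGN peptide (20:1 molar ratio) and transfected into KRAS-mutant (G12V or G12D) and other cancer cell lines in 48-well format, 2 h exposure in serum-free DMEM. Indels at endogenous target sites measured 72 h post-transfection by T7E1 or deep sequencing.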"}, "[3]": {"system": "G12V, G12D, G12C KRAS mutant cells and WT KRAS cells", "assay": "Specificity of lead sgRNAs on a large panel of cancer cells harboring different KRAS mutations (indel, proliferation)", "assay_type": "cell-based, human", "conditions": "Cas9 mRNA 0.2 μg, gRNA 0.4 μg", "description": "In order to confirm the specificity of sgRNAs targeting G12V, G12C or G12D KRAS mutation, gRNA35T3 targeting G12V, gRNA34T6 targeting G12C, and gRNA35A5 targeting G12D were evaluated on a large panel of cancer cells harboring different KRAS mutations including SW403, SW480, PANC1, PK-45H, PK-1, MIA-PACA, H23, H358, HT-29, HS-68 and LS513. Cas9 mRNA (0.2 μg) and gRNA (0.4 μg) were associated with ADGN peptide at molar ratio 20/1 (peptide/nucleic acid). Cells were cultured in 48 well plate format and treated with free mRNACas9-gRNA, or ADGN/mRNACas9:gRNA complex. Indel frequencies at the endogenous target sequences was evaluated 72 hours after transfection by either T7E1 method and cell proliferation was analyzed over a period of 5 days using CellTiter Glow kits on GlowMax (Promega)."}}}
{"sequence": "AGT TGG AGC TGA TGG CGT (guide AGTTGGAGCTGATGGCGT; chemistry not given here) [gRNA35A5, sgRNA target KRAS G12D mutation (35G>A); PAM AGG]", "values": [{"measurement": "level of p-ERK", "setting": "[1]", "value": "significantly reduced"}, {"measurement": "indel frequencies", "setting": "[2]; HS68 cells (WT KRAS)", "value": "2 ± 1", "unit": "%"}, {"measurement": "indel frequencies", "setting": "[2]; HT-29 cells (WT KRAS)", "value": "2 ± 1", "unit": "%"}, {"measurement": "effect on non-targeted KRAS mutant cells and WT KRAS cells (FIGS. 4A-4B)", "setting": "[3]", "value": "does not alter G12V and G12C KRAS mutant cells or WT KRAS cells"}]}
